Measurements from patent US20230041065A1, “METHODS FOR GENERATING HEMATOPOIETIC STEM CELLS” (The Brigham and Women`s Hospital, Inc., priority 2019, published 2023).
“Also recorded” adds a separate entry of the source.

Tested on: human iPSC-derived MACS-sorted CD34+ cells
Assay: Hematopoietic CFU assays of human iPSC-derived MACS-sorted CD34+ cells
Type: cell-based
Details: 20,000 hCD34+ cells per sample
Experimental: Embryoid body and hemogenic endothelium differentiation was performed as described in (Sugimura et al. 2017; Ditadi et al. 2015). Briefly, hiPSC colonies were dissociated with 0.05% trypsin for 5 min at 37° C., washed with PBS+2% FBS, and resuspended in StemPro-34 (Invitrogen, 10639-011) supplemented with L-glutamine (2 mM), penicillin/streptomycin ([…]), ascorbic acid (1 mM), human holo-Transferrin ([…], Sigma T0665), monothioglycerol (MTG, 0.4 mM), BMP4 (10 ng/ml), and Y-27632 (10 μM). Five million cells were seeded into 10 cm dishes (Ezsphere, Asahi Glass) for the spheroid formation. On Day 1, bFGF (5 ng/ml) and BMP4 (10 ng/ml) was added to the medium. On Day 2, the media was changed with the StemPro-34 supplemented with SB431542 (6 μM), CHIR99021 (3 μM), bFGF (5 ng/ml), and BMP4 (10 ng/ml). On Day 3, the medium was replaced with StemPro-34 supplemented with VEGF (15 ng/ml) and bFGF (10 ng/ml). On day 6, the medium was changed to StemPro-34 supplemented with bFGF (5 ng/ml), VEGF (15 ng/ml), interleukin (IL)-6 (10 ng/ml), IGF-1 (25 ng/ml), IL-11 (5 ng/ml), SCF (50 ng/ml) and EPO (2IU). The cells were maintained in a 5% CO2, 5% O2 and 95% humidity incubator. All cytokines were purchased from Peprotech. […]

## Clc1cccc(Cl)c1CSc1nnc(-c2cnccn2)s1 [Yoda1, 2-[5-[[(2,6-Dichlorophenyl)methyl]thio]-1,3,4-thiadiazol-2-yl]-pyrazine]
  multipotent GEMM progenitor formation: elevated multipotent hematopoietic progenitor formation and human hematopoiesis; also recorded: stimulates multipotent GEMM progenitor formation and human hematopoiesis
